Data taken from publication PMC8507260, “A2E-induced inflammation and angiogenesis in RPE cells in vitro are modulated by PPAR-α, -β/δ, -γ, and RXR antagonists and by norbixin” (Aging (Albany NY), 2021).

System: RPE cells
Test: Cell viability of RPE cells in culture without blue light
Format: cell-based, porcine
Details: cell culture conditions for cytokine dosage, absence of blue light exposure

CC(C=CC1=C(C)CCCC1(C)C)=CC=CC(C)=Cc1cc(C=CC=C(C)C=CC2=C(C)CCCC2(C)C)cc[n+]1CCO [A2E, N-retinylidene-N-retinylethanolamine]
cell viability: not diminished
